In patent US6372777B1, “Cyclic AMP-specific phosphodiesterase inhibitors” (ICOS Corporation, priority 1999, dated 2002) one finds IC50 data, which are given here for 35 compounds.

SMILES strings stand for the structures.

In the experiment the target is T1, human recombinant PDE4 (Homo sapiens, UniProt Q07343).
T1 construct: made in house; host or cells: Saccharomyces cerevisiae BJ2-54 (strain YI23 harboring HDUN2.32, if PDE4B)
T1 sequence (Q07343 1-564 isoform Q07343-2): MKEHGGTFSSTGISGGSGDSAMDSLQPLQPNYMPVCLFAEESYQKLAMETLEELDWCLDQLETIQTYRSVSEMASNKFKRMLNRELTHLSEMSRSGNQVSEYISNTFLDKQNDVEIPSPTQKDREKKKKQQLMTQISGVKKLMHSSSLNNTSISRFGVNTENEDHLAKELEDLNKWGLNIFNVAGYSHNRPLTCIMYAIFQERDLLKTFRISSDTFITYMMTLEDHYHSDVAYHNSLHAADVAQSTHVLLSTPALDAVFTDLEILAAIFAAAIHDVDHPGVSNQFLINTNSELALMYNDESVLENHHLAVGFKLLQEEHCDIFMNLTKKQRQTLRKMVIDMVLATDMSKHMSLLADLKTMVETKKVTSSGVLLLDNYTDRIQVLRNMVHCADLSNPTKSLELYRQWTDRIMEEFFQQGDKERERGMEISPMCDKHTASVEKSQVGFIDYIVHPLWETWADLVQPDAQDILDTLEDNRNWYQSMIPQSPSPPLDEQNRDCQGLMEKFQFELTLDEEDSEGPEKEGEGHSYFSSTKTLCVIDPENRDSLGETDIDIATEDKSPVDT
In words: Inhibition of human recombinant PDE4 (IC50). The class given is biochemical.
By IC50 is commonly meant the concentration that inhibits the measured activity by half. `CCOC(=O)c1cc(C)n(-c2ccc([N+](=O)[O-])cc2)c1-c1ccccc1` [Example 36, 5-Methyl-1-(4-nitrophenyl)-2-phenyl-1H-pyrrole-3-carboxylic acid ethyl ester]: the IC50 is 110 µM.

In the case of `CCOC(=O)c1cc(-c2ccccc2)n(-c2cccc(N)c2)c1C` [Example 41, 1-(3-Aminophenyl)-2-methyl-5-phenyl-1H-pyrrole-3-carboxylic acid ethyl ester], the IC50 came out at 1.42 µM.

Take `CCOC(=O)c1cc(-c2ccccc2)n(-c2ccc([N+](=O)[O-])cc2)c1C` [Example 33, 2-Methyl-1-(4-nitrophenyl) -5-phenyl-1H-pyrrole-3-carboxylic acid ethyl ester]: the IC50 worked out at 1.4 µM.

For `CCOC(=O)c1cc(C)n(-c2ccc(N)cc2)c1-c1ccccc1` [Example 37, 1-(4-Aminophenyl)-5-methyl-2-phenyl-1H-pyrrole-3-carboxylic acid ethyl ester], the half-inhibitory concentration (IC50) is 16 µM.

Turning to `CCOC(=O)c1cc(-c2ccccc2)n(-c2cccc(C(F)(F)F)c2)c1C` [Example 28, 2-Methyl-5-phenyl-1-(3-trifluoro-methylphenyl)-1H-pyrrole-3-carboxylic acid ethyl ester], the IC50 was determined as 2.28 µM.

On to `CCOC(=O)c1cc(-c2ccccc2)n(-c2cccc(C(C)=O)c2)c1C` [Example 8, 1-(3-Acetylphenyl)-2-methyl-5-phenyl-1H-pyrrole-3-carboxylic acid ethyl ester], for which the IC50 was determined as 0.59 µM.

Consider `CCOC(=O)c1cc(C)n(-c2cccc(C(F)(F)F)c2)c1-c1ccccc1` [Example 29, 5-Methyl-2-phenyl-1-(3-trifluoro-methylphenyl)-1H-pyrrole-3-carboxylic acid ethyl ester], for which the half-maximal inhibitory concentration (IC50) was 6.78 µM.

Take `CCOC(=O)c1cc(-c2ccccc2)n(-c2cccc(S(C)(=O)=O)c2)c1C` [Example 10, 1-(3-Methanesulfonylphenyl)-2-methyl-5-phenyl-1H-pyrrole-3-carboxylic acid ethyl ester]: the IC50 is 4.38 µM.

`CCOC(=O)c1cc(C)n(-c2cc(C(F)(F)F)cc(C(F)(F)F)c2)c1-c1ccccc1` [Example 45, 1-(3,5-Bis-trifluoromethylphenyl)-5-methyl-2-phenyl-1H-pyrrole-3-carboxylic acid ethyl ester]: the IC50 came out at 194 µM.

For `CCOC(=O)c1cc(C)n(-c2cccc([N+](=O)[O-])c2)c1-c1ccccc1` [Example 39, 1-(3-Nitrophenyl)-5-methyl-2-phenyl-1H-pyrrole-3-carboxylic acid ethyl ester], the IC50 turned out to be 0.2 µM.

For the compound `CCOC(=O)c1cc(-c2ccccc2)n(Cc2cccc([N+](=O)[O-])c2)c1C` [Example 30, 2-Methyl-1-(3-nitrobenzyl)-5-phenyl-1H-pyrrole-3-carboxylic acid ethyl ester], the IC50 was 13.4 µM.

`CCOC(=O)c1cc(-c2ccccc2)n(C2CCCCC2)c1C` [Example 20, 1-Cyclohexyl-2-methyl-5-phenyl-1H-pyrrole-3-carboxylic acid ethyl ester]: the IC50 worked out at 0.99 µM.

For `CCOC(=O)c1cc(C)n(-c2cccc(F)c2)c1-c1ccccc1` [Example 17, 1-(3-Fluorophenyl)-5-methyl-2-phenyl-1H-pyrrole-3-carboxylic acid ethyl ester], the half-maximal inhibitory concentration (IC50) was 13.2 µM.

As to `CCOC(=O)c1cc(C)n(-c2cccc(C)c2)c1-c1ccccc1` [Example 4, 5-Methyl-2-phenyl-1-m-tolyl-1H-pyrrole-3-carboxylic acid ethyl ester], the IC50 turned out to be 2.9 µM.

Regarding `CCOC(=O)c1cc(C)n(Cc2cccc([N+](=O)[O-])c2)c1-c1ccccc1` [Example 31, 5-Methyl-1-(3-nitrobenzyl)-2-phenyl-1H-pyrrole-3-carboxylic acid ethyl ester], the IC50 came to 5.13 µM.

Take `CCOC(=O)c1cc(C)n(-c2cccc(Br)c2)c1-c1ccccc1` [Example 6, 1-(3-Bromophenyl)-5-methyl-2-phenyl-1H-pyrrole-3-carboxylic acid ethyl ester]: the IC50 is 8.55 µM.

Turning to `CCOC(=O)c1cc(C)n(-c2cccc(C(N)=O)c2)c1-c1ccccc1` [Example 12, 1-(3-Carbamoylphenyl)-5-methyl-2-phenyl-1H-pyrrole-3-carboxylic acid ethyl ester], the IC50 came to 0.22 µM.

Consider `CCOC(=O)c1cc(C)n(-c2cccnc2)c1-c1ccccc1` [Example 32, 5-Methyl-2-phenyl-1-pyridin-3-yl-1H-pyrrole-3-carboxylic acid ethyl ester], for which the IC50 stood at 13.4 µM.

As to `CCOC(=O)c1cc(-c2ccccc2)n(-c2cccc(F)c2)c1C` [Example 18, 1-(3-Fluorophenyl)-2-methyl-5-phenyl-1H-pyrrole-3-carboxylic acid ethyl ester], the IC50 was 0.62 µM.

For the compound `CCOC(=O)c1cc(-c2ccccc2)n(-c2ccc([N+](=O)[O-])cn2)c1C` [Example 35, 2-Methyl-1-(5-nitropyridin-2-yl)-5-phenyl-1H-pyrrole-3-carboxylic acid ethyl ester], the IC50 was determined as 5.74 µM.

On to `Cc1cc(C(=O)O)c(-c2ccccc2)n1-c1cccc([N+](=O)[O-])c1` [Example 43, 5-Methyl-1-(3-nitrophenyl)-2-phenyl-1H-pyrrole-3-carboxylic acid], for which the IC50 was determined as 15.6 µM.

On to `CCOC(=O)c1cc(-c2ccccc2)n(-c2cccc(C)c2)c1C` [Example 5, 2-Methyl-5-phenyl-l-m-tolyl-1H-pyrrole-3-carboxylic acid ethyl ester], for which the IC50 was found to be 6.1 µM.

On to `CCOC(=O)c1cccc(-n2c(C)cc(C(=O)OCC)c2-c2ccccc2)c1` [Example 46, 1-(3-Ethoxycarbonylphenyl)-5-methyl-2-phenyl-1H-pyrrole-3-carboxylic acid ethyl ester], for which the IC50 amounted to 8.7 µM.

In the case of `CCOC(=O)c1cc(-c2ccccc2)n(-c2cccc(Br)c2)c1C` [Example 26, 1-(3-Bromophenyl)-2-methyl-5-phenyl-1H-pyrrole-3-carboxylic acid ethyl ester], the IC50 turned out to be 3.07 µM.

With `CCOC(=O)c1cc(-c2ccccc2)n(-c2ccccc2[N+](=O)[O-])c1C` [Example 34, 2-Methyl-1-(2-nitrophenyl)-5-phenyl-1H-pyrrole-3-carboxylic acid ethyl ester], the IC50 turned out to be 1.65 µM.

Take `CCOC(=O)c1cc(C)n(-c2ccc([N+](=O)[O-])cn2)c1-c1ccccc1` [Example 23, 5-Methyl-1-(5-nitropyridin-2-yl)-2-phenyl-1H-pyrrole-3-carboxylic acid ethyl ester]: the IC50 stood at 133 µM.

In the case of `CCOC(=O)c1cc(C)n(-c2cccc(C(C)=O)c2)c1-c1ccccc1` [Example 7, 1-(3-Acetylphenyl)-5-methyl-2-phenyl-1H-pyrrole-3-carboxylic acid ethyl ester], the IC50 was found to be 6.83 µM.

For the compound `CCOC(=O)c1cc(C)n(-c2cccc(Cl)c2)c1-c1ccccc1` [Example 2, 1-(3-Chlorophenyl)-5-methyl-2-phenyl-1H-pyrrole-3-carboxylic acid ethyl ester], the IC50 was 5.45 µM.

For the compound `CCOC(=O)c1cc(C)n(-c2cccc(S(C)(=O)=O)c2)c1-c1ccccc1` [Example 9, 1-(3-Methanesulfonylphenyl)-5-methyl-2-phenyl-1H-pyrrole-3-carboxylic acid ethyl ester], the half-maximal inhibitory concentration (IC50) came to 4.58 µM.

Regarding `CCOC(=O)c1cc(C)n(-c2cccc(C(=O)O)c2)c1-c1ccccc1` [Example 24, 1-(3-Carboxyphenyl)-5-methyl-2-phenyl-1H-pyrrole-3-carboxylic acid ethyl ester], the IC50 turned out to be 16.5 µM.

For the compound `CCOC(=O)c1cc(-c2ccccc2)n(-c2ccc(N)cc2)c1C` [Example 38, 1-(4-Aminophenyl)-2-methyl-5-phenyl-1H-pyrrole-3-carboxylic acid ethyl ester], the IC50 was found to be 1.3 µM.

Take `CCOC(=O)c1cc(-c2ccccc2)n(-c2cccc(N(C)C)c2)c1C` [Example 1, 1-(3-Dimethylaminophenyl)-2-methyl-5-phenyl-1H-pyrrole-3-carboxylic acid ethyl ester]: the IC50 amounted to 8.22 µM.

Take `CCOC(=O)c1cc(C)n(-c2cccc(N(C)C)c2)c1-c1ccccc1` [Example 13, 1-(3-Dimethylaminophenyl)-5-methyl-2-phenyl-1H-pyrrole-3-carboxylic acid ethyl ester]: the IC50 worked out at 0.15 µM.

Regarding `CCOC(=O)c1cc(-c2ccccc2)n(-c2cccnc2)c1C` [Example 19, 2-Methyl-5-phenyl-1-pyridin-3-yl-1H-pyrrole-3-carboxylic acid ethyl ester], the 50% inhibitory concentration (IC50) worked out at 1.28 µM.

With `CCOC(=O)c1cc(-c2ccccc2)n(-c2cccc(C(N)=O)c2)c1C` [Example 11, 1-(3-Carbamoylphenyl)-2-methyl-5-phenyl-1H-pyrrole-3-carboxylic acid ethyl ester], the 50% inhibitory concentration (IC50) came out at 5.45 µM.
